22 molecules from patent US6610689B2, “HIV protease inhibitors based on amino acid derivatives” (priority 2001, dated 2003) can be followed below.

The first test deals with T1, HIV protease (Human immunodeficiency virus type 1 group M subtype B, UniProt P04585).
T1 construct: A third viral enzyme known as protease then cleaves the polyproteins
In words: Enzymatic Assay for Determining the Inhibition Constant (Ki) of Synthetic Compounds Targeting the HIV Protease (fluorometric FRET assay).
Settings: not given
It is filed as biochemical. Put shortly: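 Fluorometric FRET assay following protease cleavage of an EDANS/DABCYL-labelled substrate. Initial velocities without (Vo) and with inhibitor (Vi) measured; Ki derived from the Henderson equation using inhibitor and substrate concentrations and Km.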
By Ki is commonly meant a measure of affinity in units of concentration, obtained from inhibition or displacement. In turn, `Cc1ccc(S(=O)(=O)N(CC(C)C)[C@H](CO)CCCCNC(=O)[C@H](Cc2c[nH]c3ccccc23)NS(=O)(=O)c2ccc([N+](=O)[O-])cc2)cc1` [Example 130, (2S,2′S) 2-N-Isobutyl-2-N-(4-methylbenzenesulfonyl)-6-N-[N′α-(4-nitrobenzenesulfonyl)-S-tryptophanyl]-2,6-diaminohexanol] registered a Ki of 27 nM.
As for `CC(C)CN([C@H](CO)CCCCNC(=O)[C@H](Cc1c[nH]c2ccccc12)NC(=O)C(C)(C)C)S(=O)(=O)c1ccc(N)cc1` [Example 169, (2S,2′S) 2-N-(4-Aminobenzenesulfonyl)-2-N-isobutyl-6-N-(N′α-pivaloyl-S-tryptophanyl)-2,6-diaminohexanol], affinity was put at a Ki of 1.2 nM.
Same read-out and setting: as for `Cc1ccc(S(=O)(=O)N(CC(C)C)[C@@H](CCCCNC(=O)[C@@H](N)Cc2ccccc2)C(=O)O)cc1` [Example 79, Nα-Isobutyl-Nα-(4-methylbenzenesulfonyl)-Nε-(L-phenylalanyl)-L-lysine], the figure is 1.5 nM.
The same measure, in the same setting: in the case of `Cc1ccc(S(=O)(=O)N(CC(C)C)[C@@H](CCCCNC(=O)[C@@H]2Cc3ccccc3CN2S(=O)(=O)c2ccc(C)cc2)C(=O)O)cc1` [Example 65] it was 24 nM; in that of `COc1ccc(CC(=O)N[C@@H](Cc2ccccc2)C(=O)NCCCC[C@@H](C(=O)O)N(CC(C)C)S(=O)(=O)c2ccc(C)cc2)cc1` [Example 132, Nα-Isobutyl-Nα-(4-methylbenzenesulfonyl)-Nε-[N′α-(4-methoxyphenylacetyl)-L-phenylalanyl]-L-lysine], 0.257 nM; in that of `Cc1ccc(S(=O)(=O)N(CC(C)C)[C@@H](CCCCNC(=O)[C@H](Cc2ccccc2)NS(=O)(=O)c2cccs2)C(=O)O)cc1` [Example 24, Nα-Isobutyl-Nα-(4-methylbenzenesulfonyl)-Nε-[N′α-(2-thiophenesulfonyl)-L-phenylalanyl]-L-lysine], 0.506 nM.
Same read-out and setting: in the case of `Cc1ccc(S(=O)(=O)N[C@@H](CC2CCCCC2)C(=O)NCCCC[C@@H](C(=O)O)N(CC(C)C)S(=O)(=O)c2ccc(C)cc2)cc1` [Example 33, Nα-Isobutyl-Nα-(4-methylbenzenesulfonyl)-Nε-[N′α-(4-methylbenzenesulfonyl)-L-cyclohexylalanyl]-L-lysine] it was 3.2 nM; in that of `Cc1ccc(S(=O)(=O)N(CC(C)C)[C@@H](CCCCNC(=S)[C@H](Cc2c[nH]c3ccccc23)NS(=O)(=O)c2ccccc2)C(=O)O)cc1` [Example 74, Nα-Isobutyl-Nα-(4-methylbenzenesulfonyl)-Nε-(N′α-benzenesulfonyl-L-thiotryptophanyl)-L-lysine], 4.8 nM; in that of `Cc1ccc(S(=O)(=O)N[C@@H](CC(=O)O)C(=O)NCCCC[C@@H](C(=O)O)N(CC(C)C)S(=O)(=O)c2ccc(C)cc2)cc1` [Example 41, Nα-Isobutyl-Nα-(4-methylbenzenesulfonyl)-Nε-[N′α-(4-methylbenzenesulfonyl)-L-aspartyl]-L-lysine], 172 nM.
`COc1ccc(S(=O)(=O)N(CC(C)C)[C@H](CO)CCCCNC(=O)[C@H](Cc2c[nH]c3ccccc23)NC(=O)OC(C)(C)C)cc1` [Example 147, (2S,2′S) 2-N-Isobutyl-2-N-(4-methoxybenzenesulfonyl)-6-N-(N′α-tert-butoxycarbonyl-S-tryptophanyl)-2,6-diaminohexanol] displayed an inhibition constant (Ki) of 16 nM.
`Cc1ccc(S(=O)(=O)N(CC(C)C)[C@@H](CCCCNC(=O)[C@H](Cc2ccccc2)NC(=O)C(F)(F)F)C(=O)O)cc1` [Example 101, Nα-Isobutyl-Nα-(4-methylbenzenesulfonyl)-Nε-(N′α-trifluoroacetyl-L-phenylalanyl)-L-lysine]: the affinity, expressed as Ki, was 2.9 nM.
Still for that read-out and setting: in the case of `Cc1ccc(S(=O)(=O)N(CC(C)C)[C@@H](CCCCNC(=O)[C@@H](N)[C@@H](C)OCc2ccccc2)C(=O)O)cc1` [Example 91, Nα-Isobutyl-Nα-(4-methylbenzenesulfonyl)-Nε-(O-benzyl-L-threonyl)-L-lysine] it was 10 nM; in that of `Cc1ccc(S(=O)(=O)N(CC(C)C)[C@@H](CCCCNC(=O)[C@@H](N)Cc2c[nH]c3ccccc23)C(=O)O)cc1` [Example 93, Nα-Isobutyl-Nα-(4-methylbenzenesulfonyl)-Nε-(L-tryptophanyl)-L-lysine], 2.1 nM; in that of `Cc1ccc(S(=O)(=O)N[C@H](Cc2ccccc2)C(=O)NCCCC[C@@H](C(=O)O)N(CC(C)C)S(=O)(=O)c2ccc(C)cc2)cc1` [Example 7, Nα-Isobutyl-Nα-(4-methylbenzenesulfonyl)-Nε-[N′α-(4-methylbenzenesulfonyl)-D-phenylalanyl]-L-lysine], 120 nM.
Same read-out and setting: in the case of `CC(C)CN([C@H](CO)CCCCNC(=O)[C@H](Cc1c[nH]c2ccccc12)NS(=O)(=O)c1ccc(N)cc1)S(=O)(=O)c1ccc(N)cc1` [Example 187, (2S,2′S) 2-N-(4-Aminobenzenesulfonyl)-2-N-isobutyl-6-N-[N′α-(4-aminobenzenesulfonyl)-S-tryptophanyl]-2,6-diaminohexanol] it was 0.2 nM; in that of `COC(=O)N[C@@H](Cc1c[nH]c2ccccc12)C(=O)NCCCC[C@@H](CO)N(CC(C)C)S(=O)(=O)c1ccc(N)cc1` [Example 178, (2S,2′S) 2-N-(4-Aminobenzenesulfonyl)-2-N-isobutyl-6-N-(N′α-methoxycarbonyl-S-tryptophanyl)-2,6-diaminohexanol], 2 nM.
Molecule `CC(C)CN([C@@H](CCCCNC(=O)[C@H](Cc1ccccc1)NS(=O)(=O)c1ccccc1)C(=O)O)S(=O)(=O)c1ccc(N)cc1` [Example 44, Nα-(4-Aminobenzenesulfonyl)-Nα-isobutyl-Nε-(N′α-benzenesulfonyl-L-phenylalanyl)-L-lysine] gave an inhibition constant (Ki) of 3.6 nM.
The same measure, in the same setting: as for `Cc1ccc(S(=O)(=O)N(CC(C)C)[C@@H](CCCCNC(=O)[C@H](Cc2c[nH]c3ccccc23)NS(=O)(=O)c2ccc([N+](=O)[O-])cc2)C(=O)O)cc1` [Example 6, Nα-Isobutyl-Nα-(4-methylbenzenesulfonyl)-Nε-[N′α-(4-nitrobenzenesulfonyl)-L-tryptophanyl]-L-lysine], the figure is 7.3 nM.
Still for that read-out and setting: in the case of `CC(C)CN([C@@H](CCCCNC(=O)[C@H](Cc1ccccc1)NS(=O)(=O)c1cccs1)C(=O)NN)S(=O)(=O)c1ccc(N)cc1` [Example 49, Nα-(4-Aminobenzenesulfonyl)-Nα-isobutyl-Nε-[N′α-(2-thiophenesulfonyl)-L-phenylalanyl]-L-lysine Hydrazide] it was 17 nM.

Staying with this test, now noted: Anti-protease activity; read-out: Ki.
`Cc1ccc(S(=O)(=O)N(CC(C)C)[C@@H](CCCCNC(=O)[C@@H]2C[C@@H](O)CN2S(=O)(=O)c2ccccc2)C(=O)O)cc1` (relative stereo) [Example 17, Nα-Isobutyl-Nα-(4-methylbenzenesulfonyl)-Nε-[N′α-(benzenesulfonyl)-4-trans-hydroxy-L-prolyl]-L-lysine]: the inhibition constant Ki is 55 nM.

Staying with this test, now noted: Table 1, compounds of formula I; read-out: Ki (anti-protease activity).
On to `CC(C)CN([C@H](CO)CCCCNC(=O)[C@H](Cc1c[nH]c2ccccc12)NC(=O)N1CCOCC1)S(=O)(=O)c1ccc(N)cc1` [Example 170, (2S,2′S) 2-N-(4-Aminobenzenesulfonyl)-2-N-isobutyl-6-N-[N′α-(4-morpholinecarbonyl)-S-tryptophanyl]-2,6-diaminohexanol], for which the inhibition constant Ki worked out at 1.1 nM.
Same read-out and setting: as for “(2S,2′S) 2-N-Isobutyl-2-N-(4-methylbenzenesulfonyl)-6-N-(N′α-tert-butoxycarbonyl-S-4-thiazolylalanyl)-2,6-diaminohexanol [Example 137]”, the figure is 96 nM.
